Test results reported in PubChem BioAssay (NCI).
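Step 1: Grow cells in 96-well plates. Step 2: Expose to compound for 48 hours at 5 concentrations. Step 3: Interpolate endpoints linearly; if unreached, use highest concentration. TGI is the concentration that stops growth completely.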

Legend:
Experiment in all cases: NCI anticancer screen, dose series, 48 h
XF 498 CNS = test system: XF 498 CNS
CAKI-1 renal = test system: CAKI-1 renal
SK-MEL-5 melanoma = test system: SK-MEL-5 melanoma
NCI-H460 lung = test system: NCI-H460 lung
HOP-92 NSCLC = test system: HOP-92 NSCLC
OVCAR-3 ovarian = test system: OVCAR-3 ovarian
LOX IMVI melanoma = test system: LOX IMVI melanoma
SK-OV-3 ovarian = test system: SK-OV-3 ovarian
NCI-H23 lung = test system: NCI-H23 lung
HL-60(TB) leukemia = test system: HL-60(TB) leukemia
NCI-H522 lung = test system: NCI-H522 lung
DLD-1 colon = test system: DLD-1 colon
SW-620 colon = test system: SW-620 colon
A498 renal = test system: A498 renal
DMS 114 small cell lung = test system: DMS 114 small cell lung
UO-31 renal = test system: UO-31 renal
TK-10 renal = test system: TK-10 renal
SK-MEL-28 melanoma = test system: SK-MEL-28 melanoma
UACC-62 melanoma = test system: UACC-62 melanoma
SF-539 CNS = test system: SF-539 CNS
M19-MEL melanoma = test system: M19-MEL melanoma
HOP-62 NSCLC = test system: HOP-62 NSCLC
RPMI-8226 leukemia = test system: RPMI-8226 leukemia
MALME-3M melanoma = test system: MALME-3M melanoma
CCRF-CEM leukemia = test system: CCRF-CEM leukemia
UACC-257 melanoma = test system: UACC-257 melanoma
OVCAR-5 ovarian = test system: OVCAR-5 ovarian
HT29 colon = test system: HT29 colon
SN12C renal = test system: SN12C renal
K-562 leukemia = test system: K-562 leukemia
KM20L2 colon = test system: KM20L2 colon
HOP-18 NSCLC = test system: HOP-18 NSCLC
SNB-78 CNS = test system: SNB-78 CNS
MOLT-4 leukemia = test system: MOLT-4 leukemia
OVCAR-4 ovarian = test system: OVCAR-4 ovarian
OVCAR-8 ovarian = test system: OVCAR-8 ovarian
COLO 205 colon = test system: COLO 205 colon
HCT-116 colon = test system: HCT-116 colon
SK-MEL-2 melanoma = test system: SK-MEL-2 melanoma
EKVX NSCLC = test system: EKVX NSCLC
IGROV1 ovarian = test system: IGROV1 ovarian
SF-268 CNS = test system: SF-268 CNS
SNB-75 CNS = test system: SNB-75 CNS
SNB-19 CNS = test system: SNB-19 CNS
A549 NSCLC = test system: A549 NSCLC
RXF 393 renal = test system: RXF 393 renal
NCI-H226 lung = test system: NCI-H226 lung
LXFL 529 NSCLC = test system: LXFL 529 NSCLC
DMS 273 small cell lung = test system: DMS 273 small cell lung
KM12 colon = test system: KM12 colon
786-0 renal = test system: 786-0 renal
SF-295 CNS = test system: SF-295 CNS
U251 CNS = test system: U251 CNS
M14 melanoma = test system: M14 melanoma
ACHN renal = test system: ACHN renal

Measured: TGI

O=C(OCCO)C1CC2CC1C1(C2)OCCO1 (stereo not given)
> 100 µM: XF 498 CNS | CAKI-1 renal | SK-MEL-5 melanoma | NCI-H460 lung | HOP-92 NSCLC | OVCAR-3 ovarian | LOX IMVI melanoma | SK-OV-3 ovarian | NCI-H23 lung | HL-60(TB) leukemia | NCI-H522 lung | DLD-1 colon | SW-620 colon | A498 renal | DMS 114 small cell lung | UO-31 renal | TK-10 renal | SK-MEL-28 melanoma | UACC-62 melanoma | SF-539 CNS | M19-MEL melanoma | HOP-62 NSCLC | RPMI-8226 leukemia | MALME-3M melanoma | CCRF-CEM leukemia | UACC-257 melanoma | OVCAR-5 ovarian | HT29 colon | SN12C renal | K-562 leukemia | KM20L2 colon | HOP-18 NSCLC | SNB-78 CNS | MOLT-4 leukemia | OVCAR-4 ovarian | OVCAR-8 ovarian | COLO 205 colon | HCT-116 colon | SK-MEL-2 melanoma | EKVX NSCLC | IGROV1 ovarian | SF-268 CNS | SNB-75 CNS | SNB-19 CNS | A549 NSCLC | RXF 393 renal | NCI-H226 lung | LXFL 529 NSCLC | DMS 273 small cell lung | KM12 colon | 786-0 renal | SF-295 CNS | U251 CNS | M14 melanoma | ACHN renal
